Source: patent US10093642B2, “Multitarget hedgehog pathway inhibitors and uses thereof” (UNIVERSITA' DEGLI STUDI DI SIENA, priority 2013, dated 2018)
“Also recorded” adds a separate entry of the source.

How the values were obtained:
[1] = tested on: Hh pathway (Gli-RE reporter, activated by SMO agonist SAG); assay: Gli-luciferase reporter assay in SAG-treated NIH 3T3 Shh-light II cells; type: cell-based
Method: FIG. 4. Effect of active natural compounds identified by the pharmacophore screening in a luciferase assay, where the gene reporter was Gli1 and the pathway was activated by the SAG molecule, a potent SMO agonist. Natural compounds were tested at three different concentrations (1, 10 and 20 μM) and their activity was compared to that of cyclopamine, the natural compound reference inhibitor of the Hedgehog pathway, which was tested at the same doses (1, 10 and 20 μM). On both graphs the activity of cyclopamine is reported as reference standard. (A) cyclopamine, 2,4,5,3′,4′-penta-Ome chalcone and Auriculasin; (B) cyclopamine, Martinoside, Jaceidin, 2,4,5,3′,4′-penta-Ome chalcone, 3,4-di-MDO-2′,4′,5′-tri-Ome dihydrochalcone.
FIG. 6. Dose-response curve of Glabrescione B in SAG (Smoothened Agonist, 200 nM) treated NIH 3T3 Shh-light II (Shh-LII) cells. Treatment time was 48 h and normalization was against Renilla luciferase. Shown is the fold increase of Hh reporter activity compared with cells not treated with SAG.
FIG. 19. Effect of derivatives NT8, NT9, NT10, NT11, NT12, NT13, NT14 and NT15 on the Hedgehog pathway, measured at 5 μM dose in a luciferase assay where the gene reporter was Gli1 and the pathway was activated by the SAG molecule, a potent SMO agonist. […]
To investigate the inhibitory properties of Glabrescione B on Hh signaling, the inventors examined its effects in NIH 3T3 Shh-light II (Shh-LII) cells stably incorporating an Hh-responsive (Gli-RE) reporter, in which induction of the pathway occurs following treatment with the SMO agonist SAG. […] The IC50 in this assay was 0.8 μM.
The ability of Glabrescione B to suppress Hh signaling was assessed in a cellular context of Hh pathway induction. To this end, the antagonist properties of Glabrescione B were determined in Shh Light II (ATCC, cat. # CRL-2795), a murine fibroblast NIH 3T3 cell line. These cells, stably incorporating the Gli-luc reporter and the pRL-TK Renilla reniformis (as described in Taipale, Chen et al. 2000) are a standard tool used to assay Hh pathway activity. The cells that reached the confluence were treated for 48 h with the SMO agonist SAG (200 nM, Alexis, cat. #ALX-270-426-M001) in absence or in presence of Glabrescione B at the amount indicated in FIG. 6. […] Control cells were treated with only DMSO (0.5%, SERVA, cat. #39757.02) Determination of luciferase activities was carried out using the Dual-Luciferase assay according to manufacturer's instructions (Dual-Luciferase® Reporter assay system; Promega, cat. # E1980). All presented data are firefly luciferase activity reported to the Renilla control activity. […] IC50 of 0.8 μM, represents the concentration of Glabrescione B necessary to have fifty percent of inhibition.
Evaluation of the Hh inhibitory activity of these molecules at 5 μM was preliminarily conducted in vitro on Shh Light II cells (see example 2).

[2] = tested on: HepG2 hepatocellular carcinoma cells; assay: Effect on Hh-independent HepG2 cells; type: cell-based
[3] = tested on: MEF-Ptch−/− cells; assay: Gli1 mRNA (quantitative RT-PCR) and protein (western blot) in MEF-Ptch−/− cells; type: cell-based, mouse; conditions: different concentrations, 48 h
Method: FIG. 8. […] (A) Gli1 mRNA levels were determined by quantitative RT-PCR, normalizing to HPRT (Hypoxanthine-guanine phosphoribosyl transferase) expression. Error bars indicate SD.
To analyze the antagonist properties of Glabrescione B under more physiological conditions, the inventors used MEF-Ptch^−/− cells, embryo fibroblasts derived from Ptch^−/− mouse, in which the activation of Hh signaling is consequence of Ptch1 deletion. Since Patched acts as upstream repressor of SMO, inhibition of the Hedgehog pathway from Patched is prevented and the Hedgehog pathway is constitutively activated in this cell lines, which turned out to be a reliable cellular model for studying the effect of Hedgehog inhibitors. […]
In order to determine whether Glabrescione B regulates cells with a constitutive Hh pathway activation, the MEF-Ptch^−/− cell line (a kind gift by M. Scott, Stanford University, CA, in which the activation of Hh signaling is consequence of Ptch1 deletion, Goodrich, L. V. et al, 1997) was treated with Glabrescione B at different concentrations and the effect on expression of Hh/Gli1 pathway was determined by quantitative RT-PCR and western blot analysis. […] Quantitative PCR (QPCR) analysis of Gli1 mRNA expression was performed on each cDNA sample using the ABI Prism 7900 Sequence Detection System employing Assay-on-Demand Reagents (Life Technologies). […]

COc1cc(OC)c2c(=O)c(-c3ccc(OCC=C(C)C)c(OCC=C(C)C)c3)coc2c1 [Glabrescione B, 3-(3′,4′-bis(3-methylbut-2-enyloxy)phenyl)-5,7-dimethoxy-4H-chromen-4-one]
effect on Hh pathway in luciferase assay ([1]; Gli1 gene reporter, pathway activated by SAG, cyclopamine as reference): inhibit the Hh pathway; also recorded: most potent lead
IC50 ([1]; Mus musculus, SAG 200 nM, 48 h, normalized to Renilla, read-out: IC50 of luciferase reporter activity (Hh signaling)): 800 nM
inhibition at 5 µM ([1]; Mus musculus, at 5 μM, highly active class): > 50%
effect on HepG2 cells [2]: no effect
Gli1 mRNA and protein levels [3]: strongly reduced mRNA and protein levels of Gli1
